We go through 4 molecules from patent publication US5308625A, “Enhancement of transdermal drug delivery using monoalkyl phosphates and other absorption promoters” (priority 1992, dated 1994).

For series [1] the following is noted: cited from earlier work.
Series [2] relates to patients with coronary heart disease. Particulars: cited from earlier work.
For series [3] the following is noted: in vivo; cited from earlier work.
For series [4] the following is noted: oral dose of 2 mg; cited from earlier work.
A short description of series [5]: Solubilities of molsidomine in various solvents (saturation at 32° C., HPLC). It is filed as physicochemical.
Description: Molsidomine powder was weighed on weighing paper and transferred into the sample vial. Solvent was transferred into the vial followed by insertion of a small Teflon-coated magnetic stirring bar. The sample vial was screw-capped and placed on top of a multiple stirring system obtained from Florida Scientific, Inc. and housed in an incubation oven at 32° C. The sample solutions were examined for saturation. More molsidomine was added to the solutions until saturation was achieved.
The saturated solutions were filtered through a micro filter to remove excess solid molsidomine. The filtered samples were then assayed for molsidomine concentration by the HPLC analytical method.
In this way, the solubility of molsidomine in the particular vehicle(s) was estimated.
Series [6] deals with human cadaver epidermis. Particulars: pH 6.8.
The conditions of series [7]: cited from earlier work. This is another data set of the same source.
For another series, the system named is coronary strips. Particulars: cited from earlier work; for dependence of vasodilation action on cysteine: presence / absence of cysteine.
Series [8] relates to soluble guanylate cyclase. Particulars: by nitric oxide liberated from the active metabolite SIN-1A; cited from earlier work.
Series [9] deals with human cadaver epidermis. The experiment in a line: Skin flux through human cadaver epidermis (modified Franz vertical diffusion cell, 32° C).
In a further series the test system is human skin. Particulars: in vivo; cited from earlier work.

SMILES strings stand for the structures. Converted amounts (≈) assume the structure as drawn. “Also recorded” adds a separate entry of the source. Like-named read-outs stand apart in the source and are kept apart here.

For the molecule `CCOC(=O)[N-]c1cn(N2CCOCC2)n[o+]1` [Molsidomine, N-5-ethoxycarbonyl-3-morpholinosydnonimine], the Saturated solubility in [1] (Glycerin, 25° C.) is 1.80%; in [1] (Glycol salicylate, 25° C.), 15.1%; in series [1] (Isopropyl myristate, 25° C.) it was 0.09%; in [1] (Octyl.decyl oil, 25° C.), 0.36%; in series [1] (Oleic Acid, 25° C.), 1.37%; in series [1] (PEG 400, 25° C.), 5.23%. Moreover, the “Solubility (in words)” value in [1] (in CHCl3) is reported as “Freely soluble”; in [1] (in dil HCl, ethanol, ethyl acetate and methanol), “Soluble”; in series [1] (in ether, petr ether), “very slightly soluble”; in series [1] (in propylene glycol and a variety of organic solvents) it was “soluble”; in series [1] (in water, acetone, benzene), “sparingly soluble”. Besides, the “treatment and prevention of anginal pectoris” value in series [2] (daily oral dosing of 2 mg for 3 to 4 times, clinical studies) is given as “effective”. Moreover, in [2] (human, in vivo), the anti-anginal effect result was “sustained anti-anginal effect”. Besides, the “duration of anti-anginal effects” value in series [2] (single oral dose of 2 mg, patients with coronary heart disease) was 3 to 5 h. Further, the metabolism result in series [3] is listed as “can be metabolized to SIN-1”. The total clearance in [4] was 46,000 ml/hr. Also, the solubility in series [5] (aqueous buffer, Phosphate buffer pH 5.68, read-out: Solubilities) is 12.3 ± 1.8 mg/mL (≈ 50.8 mM); in series [5] (organic solvent or mixture, Propylene Glycol (PG), read-out: Solubilities), 85.5 ± 3.9 mg/mL (≈ 353 mM); in [5] (organic solvent or mixture, propylene glycol and propylene glycol with 10% of oleic acid, lauryl alcohol or PGML, read-out: solubility), approximately 90 mg/mL (≈ 372 mM); in series [5] (pH 6.8, aqueous buffer, Phosphate buffer pH 6.80, read-out: Solubilities) it was 12.1 ± 1.3 mg/mL (≈ 50 mM); in [5] (propylene glycol:lauryl alcohol (10%), organic solvent or mixture, PG:Lauryl Alcohol (10%), read-out: Solubilities), 89.3 ± 1.5 mg/mL (≈ 369 mM); in [5] (propylene glycol:oleic acid (10%), organic solvent or mixture, PG:Oleic Acid (10%), read-out: Solubilities), 88.1 ± 0.7 mg/mL (≈ 364 mM). Besides, the solubility in [5] (propylene glycol:pgml (10%), organic solvent or mixture, PG:PGML (10%), read-out: Solubilities) is 92.9 ± 2.8 mg/mL (≈ 384 mM). For the same molecule, the “skin flux from aqueous solution” value in the series on human cadaver epidermis [6] was 9.7±1.9 μg/hr-cm^2. Besides, the “Chemical stability (in words)” value in series [7] (aqueous solution of pH 5 to 7) is listed as “very stable; also recorded: most stable”. The t90 in series [7] (pH 1-2, 20° C.) is reported as 38 days; in [7] (pH 4, 20° C.) it was 250 days; in [7] (pH 5-7, 20° C.), 950 days; in series [7] (pH 10, 20° C.), 400 days; in series [7] (pH 11, 20° C.), 40 days. In addition, the Photosensitivity entry in [7] (particularly in sunlight) is listed as “photosensitive”. Further, the tolerance result in the series on coronary strips is on record as “insignificant tolerance”.
In the case of `N#CCN(N=O)N1CCOCC1` [SIN-1A], in series [8], the “activation of soluble guanylate cyclase” value was “activates the soluble guanylate cyclase”. Besides, in the series on coronary strips, the “dependence of vasodilation action on cysteine” value is “active in both the presence and absence of cysteine”.
`O=[N+]([O-])OCC(CO[N+](=O)[O-])O[N+](=O)[O-]` [nitroglycerin]: in the series with coronary strips, the tolerance result is “tolerance toward the drug developed in coronary strips can be antagonized by cysteine” and the “dependence of vasodilation action on cysteine” value is on record as “depends on the presence of cysteine”.
For `CCCCCCCCCCCCOP(=O)(O)O` [mono-dodecyl phosphate (DDPO4), phosphoric acid mono-dodecyl ester], in the series on human cadaver epidermis [9] (addition of 10% DDPO4 to PGML, FIG. 3), the “permeation enhancement of molsidomine (increment of skin flux)” value was “four times increment”. Besides, the “pirsidomine skin permeation enhancement” value in the series on human cadaver epidermis [9] (pirsidomine) was “showed pirsidomine skin permeation enhancement”. For the same molecule, the “human skin irritation potential” value with human skin is “very low human skin irritation potential”.
